Experimental data from PMC9312114, “Synthesis and Evaluation of Novel DNA Minor Groove Binders as Antiamoebic Agents” (Antibiotics, 2022).
≈ marks a conversion by molar mass, not a printed value.

How the values were obtained:
HeLa cells = assay: Cytotoxicity assay (LDH release); type: cell-based, human; conditions: for cytotoxicity against human HeLa cells: 50 µM, 24 h, LDH release, Triton X-100 = 100%
Experimental: HeLa cells were acquired from American Type Culture Collection (ATCC) of identification ATCC CCL-2, Singapore. The cells are utilized to conduct cytotoxicity and cytopathogenicity assays. Through their cultivation in complete media, the cells were grown, and then they were placed in a 95% humidifying incubator at 37 °C and 5% CO2. Complete medium comprises Roswell Park Memorial Media (RPMI), 1% penicillin–streptomycin, 1% minimum essential medium amino acids, 1% L-glutamine, and 10% fetal bovine serum (FBS). To determine the toxicity of the compounds against human HeLa cells, cytotoxicity assays were conducted. In short, HeLa cells were cultured in 96-well plates and treated with the compounds. The plate was then placed in a humidifying incubator with 95% humidity and 5% CO2, at 37 °C, for 24 h. After 24 h, the supernatant was collected, and the cytotoxicity of the compounds was determined through a cytotoxicity detection kit that measured the quantity of lactate dehydrogenase (LDH) release. Accurate results were ensured through the addition of positive and negative controls. Untreated HeLa cells served as the negative control, whereas HeLa cells treated with 1% Triton X-100 served as the positive control. Finally, the cytotoxic properties were numerically determined by following the necessary calculations: (absorbance of media from cells treated with the drugs—absorbance of media from cells of negative control)/(absorbance of media from cells of positive control—absorbance of media from cells of negative control) × 100 [19].

Acanthamoeba castellanii [1] = assay: Amoebicidal assay; type: cell-based, Acanthamoeba castellanii genotype T4 (ATCC 50492); conditions: for MIC50 / viability at 50 µM: Acanthamoeba castellanii; for MIC50: read-out: MIC50 (minimum inhibitory concentration required to inhibit 50% of amoeba growth); for viability at 50 µM: 24 h, negative control 100%, read-out: amoeba viability; for A. castellanii, 25 µM: Table 2, 25 µM; for A. castellanii, 25 µM / A. castellanii, 75 µM / A. castellanii, 100 µM: amoeba alone 100; for A. castellanii, 75 µM: Table 2, 75 µM; for A. castellanii, 100 µM: Table 2, 100 µM
Experimental: Acanthamoeba castellanii genotype T4 (ATCC 50492) was cultivated in 10 mL growth medium of peptone yeast glucose (PYG) in tissue flasks (Baig, et al., 2021; Anwar, et al., 2019). The growth medium, PYG, consists of 0.75% proteose peptone, 0.75% yeast extract, and 1.5% glucose. Next, the amoebae were kept in tissue flasks and incubated at 30 °C.
To determine the compounds’ antiamoebic effects, amoebicidal assays were conducted. The 5 × 10^5 amoebae were placed in a 24-well plate and brought to a final volume of 500 µL. […] The 24-well plate was then placed in a 30 °C incubator for 24 h. Positive and negative controls were added to the assay in order to ensure reliable results. Serving as the negative control was the amoebae alone, with RPMI [4]. Meanwhile, amoebae, along with 0.25% sodium dodecyl sulphate (SDS), were used as the positive control. Through the addition of 0.1% methylene blue, live and dead amoebae were distinguished. Additionally, significant compounds were identified by conducting a Student’s t-test with a two-tailed distribution. Furthermore, the MIC50 values of three compounds were determined by using concentrations of […], 75, and 100 µM.

Acanthamoeba castellanii [2] = assay: Encystation assay; type: cell-based; conditions: 16% glucose, 48 h, negative control 100% cysts
Experimental: The effects of the compounds on amoeba encystation were determined through the conduction of encystation assays. Briefly, 1 × 10^6 trophozoites were incubated with the compounds in a final concentration of 16% filter-sterilized glucose. Following a 48 h incubation period, 0.1% SDS was added per well for 20 min. The cysts were then counted by using a haemocytometer. To ensure accuracy, Acanthamoeba castellanii was cultured in 16% glucose, serving as the negative control.

[3] = tested on: Acanthamoeba castellanii cysts; assay: Excystation assay; type: cell-based; conditions: cysts in PYG, negative control 100%, read-out: viable trophozoites (re-emergence of cysts to trophozoites)
Experimental: Amoeba culture was suspended in 3 mL phosphate-buffered saline (PBS) and placed on non-nutrient bacteriological agar plates to allow for the growing of Acanthamoeba castellanii cysts. After two weeks, PBS was applied to plates containing amoeba cysts, which were then scraped off. The amoebae were centrifuged at 3000× g for 10 min, and the resulting pellet was resuspended in RPMI. The 5 × 10^5 cysts were then incubated in PYG, along with 50 µM of the compounds. To ensure accuracy, amoeba cysts in PYG alone were considered as the negative control, whereas amoeba cysts in RPMI alone were taken as the positive control, as the cysts would not be able to revert back to trophozoites. The amoeba trophozoites were then numbered by using a haemocytometer.

[4] = tested on: Acanthamoeba castellanii on HeLa cell monolayers; assay: Cytopathogenicity assay (amoeba-mediated host-cell death); type: cell-based; conditions: amoebae pretreated with 50 µM for 2 h, then 24 h on HeLa cells, negative control 100%
Experimental: Amoeba-mediated host-cell death was determined by treating 5 × 10^5 amoebae with 50 µM of compounds. The amoeba-containing plate was then placed in the incubator for 2 h at 30 °C. Following the 2 h incubation period, the treated amoebae were put on confluent HeLa cell monolayers. The plate containing the treated amoebae and HeLa cells was incubated for 24 h. Progressing the incubation period, the supernatant was collected, and the cytotoxicity was determined. Accurate results were ensured through the addition of negative and positive controls. The untreated amoebae, alone, on the cells served as the negative control, while the cells treated with Triton X-100 served as the positive control.

[5] = parameters: method as in PMID 35600289; conditions: cited from earlier work
[6] = parameters: method as in PMID 35600289; conditions: pH of 7; cited from earlier work
[7] = tested on: Acanthamoeba cysts and trophozoites; parameters: method as in PMID 9736540; conditions: 0.5 to 2.5% solution; cited from earlier work

Compound: CC(C)c1sc(NC(=O)c2cc(NC(=O)c3cc(NC(=O)c4nccn4C)cn3C)cn2C)nc1C(=O)NCCCN(C)C [MGB3, N-(3-(dimethylamino)propyl)-5-isopropyl-2-(1-methyl-4-(1-methyl-4-(1-methyl-1H-imidazole-2-carboxamido)-1H-pyrrole-2-carboxamido)-1H-pyrrole-2-carboxamido)thiazole-4-carboxamide]
- cytotoxicity against human HeLa cells (HeLa cells): 16.2%
- MIC50 (Acanthamoeba castellanii [1]): 65.9 µM (≈ 41 µg/mL)
- viability at 50 µM (Acanthamoeba castellanii [1]): 76.2%
- A. castellanii, 25 µM (Acanthamoeba castellanii [1]): 43.7 ± 3.8
- A. castellanii, 75 µM (Acanthamoeba castellanii [1]): 51 ± 4.7
- A. castellanii, 100 µM (Acanthamoeba castellanii [1]): 46 ± 4.8
- cysts present (Acanthamoeba castellanii [2]): 83.5%
- viability at 50 µM [3]: 64.3%
- amoeba-mediated host-cell death (cytotoxic activity due to amoeba) [4]: 41.5%

Compound: CC(C)c1sc(NC(=O)c2cc(NC(=O)c3cc(NC(=O)c4cscn4)cn3C)cn2C)nc1C(=O)NCCCN(C)C [MGB4, N-(3-(dimethylamino)propyl)-5-isopropyl-2-(1-methyl-4-(1-methyl-4-(thiazole-4-carboxamido)-1H-pyrrole-2-carboxamido)-1H-pyrrole-2-carboxamido)thiazole-4-carboxamide]
- cytotoxicity against human HeLa cells (HeLa cells): 18.4%
- viability at 50 µM (Acanthamoeba castellanii [1]): 95.2%
- cysts present (Acanthamoeba castellanii [2]): 82.3%
- viability at 50 µM [3]: 47.3%
- amoeba-mediated host-cell death (cytotoxic activity due to amoeba) [4]: 49.4%

Compound: CN(C)CCCNC(=O)c1cc(NC(=O)c2cc(NC(=O)c3cc(NC(=O)c4cscn4)cn3C)cn2C)cn1C [MGB6, N-(5-((5-((5-((3-(dimethylamino)propyl]carbamoyl)-1-methyl-1H-pyrrol-3-yl)carbamoyl)-1-methyl-1H-pyrrol-3-yl}carbamoyl)-1-methyl-1H-pyrrol-3-yl)-1,3-thiazole-4-carboxamide]
- cytotoxicity against human HeLa cells (HeLa cells): 14.4%
- MIC50 (Acanthamoeba castellanii [1]): 58.3 µM (≈ 33.8 µg/mL)
- viability at 50 µM (Acanthamoeba castellanii [1]): 59.5%
- A. castellanii, 25 µM (Acanthamoeba castellanii [1]): 57 ± 2.4
- A. castellanii, 75 µM (Acanthamoeba castellanii [1]): 48 ± 5.5
- A. castellanii, 100 µM (Acanthamoeba castellanii [1]): 45 ± 1.4
- cysts present (Acanthamoeba castellanii [2]): 46.3%
- viability at 50 µM [3]: 41.4%
- amoeba-mediated host-cell death (cytotoxic activity due to amoeba) [4]: 49.5%

Compound: Cn1cc(NC(=O)c2cc(NC(=O)c3cc4ccccc4oc3=O)cn2C)cc1C(=O)NCCCN1CCOCC1 [MGB16, 1-methyl-N-(1-methyl-5-{[3-(morpholin-4-yl)propyl]carbamoyl}-1H-pyrrol-3-yl)-4-(2-oxo-2H-chromene-3-amido)-1H-pyrrole-2-carboxamide]
- cytotoxicity against human HeLa cells (HeLa cells): 12.7%
- viability at 50 µM (Acanthamoeba castellanii [1]): 43.2%
- cysts present (Acanthamoeba castellanii [2]): 45.6%
- viability at 50 µM [3]: 51.7%
- amoeba-mediated host-cell death (cytotoxic activity due to amoeba) [4]: 88.6%

Compound: Cn1cc(NC(=O)c2cc(NC(=O)CCSc3ccc4ccccc4c3)cn2C)cc1C(=O)NCCCN1CCOCC1 [MGB20, 1-methyl-4-(1-methyl-4-(3-(naphthalen-2-ylthio)propanamido)-1H-pyrrole-2-carboxamido)-N-(3-morpholinopropyl)-1H-pyrrole-2-carboxamide]
- cytotoxicity against human HeLa cells (HeLa cells): 31.4%
- MIC50 (Acanthamoeba castellanii [1]): 83.6 µM (≈ 50.4 µg/mL)
- viability at 50 µM (Acanthamoeba castellanii [1]): 81.9%
- A. castellanii, 25 µM (Acanthamoeba castellanii [1]): 64 ± 3.2
- A. castellanii, 75 µM (Acanthamoeba castellanii [1]): 54.6 ± 5.8
- A. castellanii, 100 µM (Acanthamoeba castellanii [1]): 48 ± 1.1
- cysts present (Acanthamoeba castellanii [2]): 39%
- viability at 50 µM [3]: 96%
- amoeba-mediated host-cell death (cytotoxic activity due to amoeba) [4]: 83.2%

Compound: Cc1ccc(CSCCC(=O)Nc2cc(C(=O)Nc3cc(C(=O)NCCCN(C)C)n(C)c3)n(C)c2)cc1 [MGB22, N-(3-(dimethylamino)propyl)-1-methyl-4-(1-methyl-4-(3-((4-methylbenzyl)thio)propanamido)-1H-pyrrole-2-carboxamido)-1H-pyrrole-2-carboxamide]
- cytotoxicity against human HeLa cells (HeLa cells): 33.7%
- viability at 50 µM (Acanthamoeba castellanii [1]): 66.5%
- cysts present (Acanthamoeba castellanii [2]): 30.3%
- viability at 50 µM [3]: 52.9%
- amoeba-mediated host-cell death (cytotoxic activity due to amoeba) [4]: 71.5%

Compound: CN(C)CCCNC(=O)c1cc(NC(=O)c2cc(NC(=O)c3ccc(C#Cc4ccccc4)cc3)cn2C)cn1C [MGB26, N-(3-(dimethylamino)propyl)-1-methyl-4-(1-methyl-4-(4(phenylethynyl)benzamido)-1H-pyrrole-2-carboxamido)-1H-pyrrole-2-carboxamide]
- cytotoxicity against human HeLa cells (HeLa cells): 33.5%
- viability at 50 µM (Acanthamoeba castellanii [1]): 82.7%
- cysts present (Acanthamoeba castellanii [2]): 52.3%
- viability at 50 µM [3]: 79.1%
- amoeba-mediated host-cell death (cytotoxic activity due to amoeba) [4]: 67.3%

Compound: Cn1cc(NC(=O)c2cc(NC(=O)c3ccc(C#Cc4ccccc4)cc3)cn2C)cc1C(=O)NCCCN1CCOCC1 [MGB28, 1-methyl-4-(1-methyl-4-(4-(phenylethynyl)benzamido)-1H-pyrrole-2-carboxamido)-N-(3-morpholinopropyl)-1H-pyrrole-2-carboxamide]
- cytotoxicity against human HeLa cells (HeLa cells): 13.7%
- viability at 50 µM (Acanthamoeba castellanii [1]): 97.2%
- cysts present (Acanthamoeba castellanii [2]): 29.6%
- viability at 50 µM [3]: 40.6%
- amoeba-mediated host-cell death (cytotoxic activity due to amoeba) [4]: 91.9%

Compound: CN(C)CCCNC(=O)c1cc(NC(=O)c2cc(NC(=O)c3ccc(/C=C/c4ccccc4)cc3)cn2C)cn1C [MGB30, (E)-N-(3-(dimethylamino)propyl)-1-methyl-4-(1-methyl-4-(4-styrylbenzamido)-1H-pyrrole-2-carboxamido)-1H-pyrrole-2-carboxamide]
- cytotoxicity against human HeLa cells (HeLa cells): 34%
- viability at 50 µM (Acanthamoeba castellanii [1]): 63.4%
- cysts present (Acanthamoeba castellanii [2]): 27.8%
- viability at 50 µM [3]: 78.1%
- amoeba-mediated host-cell death (cytotoxic activity due to amoeba) [4]: 87.3%

Compound: Cn1cc(NC(=O)c2cc(NC(=O)c3ccc(/C=C/c4ccccc4)cc3)cn2C)cc1C(=O)NCCCN1CCOCC1 [MGB32, (E)-1-methyl-4-(1-methyl-4-(4-styrylbenzamido)-1H-pyrrole-2-carboxamido)-N-(3-morpholinopropyl)-1H-pyrrole-2-carboxamide]
- cytotoxicity against human HeLa cells (HeLa cells): 22.4%
- viability at 50 µM (Acanthamoeba castellanii [1]): 80.1%
- cysts present (Acanthamoeba castellanii [2]): 41.5%
- viability at 50 µM [3]: 62.1%
- amoeba-mediated host-cell death (cytotoxic activity due to amoeba) [4]: 96.3%

Compound: Cn1cc(NC(=O)c2cc(NC(=O)c3ccc(/C=C/c4cnc5ccccc5c4)cc3)cn2C)cc1C(=O)NCCN1CCOCC1 [MGB-BP-3]
- pKa [5]: 5.26
- solubility in water [6]: insoluble in water

Compound: Triton X-100 [reference compound]
- toxic activity (positive control) (HeLa cells): 100%

Compound: povidone-iodine
- antiamoebic activity [7]: good amount of antiamoebic activity
